One data set deals with T1, human mGluR5d (Homo sapiens, UniProt P41594).
T1 construct: expressed in transfected cells; The cells are kept under hygromycin B and Zeocin selection; The separate IP3 assay names GHEK cells stably expressing human mGluR5d
Nature of the data set: FLIPR assay, mobilization of intracellular calcium in cells expressing human mGluR5d. To be noted: antagonism of agonist response, read-out: FLIPR hmGluR5d. Format: cell-based. From the text: Functional Assessment of mGluR5 Antagonism in Cell Lines Expressing mGluR5D
The properties of the compounds of the invention can be analyzed using standard assays for pharmacological activity. Examples of glutamate receptor assays are well known in the art as described in for example Aramori et al., Neuron 8:757 (1992), Tanabe et al. Neuron 8:169 (1992), Miller et al., J. Neuroscience 15: 6103 (1995), Balazs, et al., J. Neurochemistry 69:151 (1997). The methodology described in these publications is incorporated herein by reference. Conveniently, the compounds of the invention can be studied by means of an assay (FLIPR) that measures the mobilization of intracellular calcium, [Ca^2+]i in cells expressing mGluR5 or another assay (IP3) that measures inositol phosphate turnover.
Cells expressing human mGluR5d as described in WO97/05252 cultured in a mixture of high glucose DMEM with Glutamax (31966-021)(500 mL), 10% dialyzed fetal bovine serum (Hyclone #SH30079.03) (56 mL), 200 μg/mL Hygromycin B (Invitrogen 45-0430, 50 mg/mL) (2.2 mL), 200 μg/mL Zeocin (Invitrogen #R250-01; 100 mg/mL) (1.1 mL) are seeded at a density of 100,000 cells per well on collagen coated clear bottom 96-well plates with black sides and cells were allowed to adhere over night before experiments. All assays are done in a buffer containing 146 mM NaCl, 5 mM KCl, 1 mM MgCl2, 1 mM CaCl2, 20 mM HEPES, 1 mg/mL glucose and 1 mg/mL BSA Fraction IV (pH 7.4). Cell cultures in the 96-well plates are loaded for 60 minutes in the above mentioned buffer containing 6 μM of the acetoxymethyl ester form of the fluorescent calcium indicator fluo-3 (Molecular Probes, Eugene, Oreg.) in 0.025% pluronic acid (a proprietary, non-ionic surfactant polyol—CAS Number 9003-11-6). Following the loading period the fluo-3 buffer is removed and replaced with fresh assay buffer. FLIPR experiments are done using a laser setting of 0.700 W and a 0.4 second CCD camera shutter speed with excitation and emission wavelengths of 488 nm and 562 nm, respectively. Each experiment is initiated with 160 μl of buffer present in each well of the cell plate. A 40 μl addition from the antagonist plate was followed by a 50 μL addition from the agonist plate. A 30 minutes, in dark at 25° C., interval separates the antagonist and agonist additions. The fluorescence signal is sampled 50 times at 1-second intervals followed by 3 samples at 5-second intervals immediately after each of the two additions. Responses are measured as the difference between the peak heights of the response to agonist, less the background fluorescence within the sample period. IC50 determinations are made using a […] least squares fitting program.
In general terms: Calcium flux is commonly read through the fluorescence of an indicator in the cells.

The nature of data set [1]: Determination of brain to plasma ratio in rat. Type of data set: in vivo. To be noted: brain and plasma, female Sprague Dawley rats, read-out: Brain/Plasma Ratio of compound in Rat. The protocol:
Brain to plasma ratios are estimated in female Sprague Dawley rats. The compound is dissolved in water or another appropriate vehicle. For determination of brain to plasma ratio the compound is administrated as a subcutaneous, or an intravenous bolus injection, or an intravenous infusion, or an oral administration. At a predetermined time point after the administration a blood sample is taken with cardiac puncture. The rat is terminated by cutting the heart open, and the brain is immediately retained. The blood samples are collected in heparinized tubes and centrifuged within 30 minutes, in order to separate the plasma from the blood cells. The plasma is transferred to 96-well plates and stored at −20° C. until analysis. The brains are divided in half, and each half is placed in a pre-tarred tube and stored at −20° C. until analysis. Prior to the analysis, the brain samples are thawed and 3 mL/g brain tissue of distilled water is added to the tubes. The brain samples are sonicated in an ice bath until the samples are homogenized. Both brain and plasma samples are precipitated with acetonitrile. After centrifugation, the supernatant is diluted with 0.2% formic acid. Analysis is performed on a short reversed-phase HPLC column with rapid gradient elution and MSMS detection using a triple quadrupole instrument with electrospray ionisation and Selected Reaction Monitoring (SRM) acquisition. Liquid-liquid extraction may be used as an alternative sample clean-up. The samples are extracted, by shaking, to an organic solvent after addition of a suitable buffer. An aliquot of the organic layer is transferred to a new vial and evaporated to dryness under a stream of nitrogen. After reconstitution of the residuals the samples are ready for injection onto the HPLC column.

Drawing on patent publication US20090111821A1, “AMINO 1,2,4-TRIAZOLE DERIVATIVES AS MODULATORS OF MGLUR5” (AstraZeneca AB, priority 2007, published 2009), this text covers IC50 and Kp for one compound.

T1 sequence (P41594 21-942 isoform P41594-3 limits assumed): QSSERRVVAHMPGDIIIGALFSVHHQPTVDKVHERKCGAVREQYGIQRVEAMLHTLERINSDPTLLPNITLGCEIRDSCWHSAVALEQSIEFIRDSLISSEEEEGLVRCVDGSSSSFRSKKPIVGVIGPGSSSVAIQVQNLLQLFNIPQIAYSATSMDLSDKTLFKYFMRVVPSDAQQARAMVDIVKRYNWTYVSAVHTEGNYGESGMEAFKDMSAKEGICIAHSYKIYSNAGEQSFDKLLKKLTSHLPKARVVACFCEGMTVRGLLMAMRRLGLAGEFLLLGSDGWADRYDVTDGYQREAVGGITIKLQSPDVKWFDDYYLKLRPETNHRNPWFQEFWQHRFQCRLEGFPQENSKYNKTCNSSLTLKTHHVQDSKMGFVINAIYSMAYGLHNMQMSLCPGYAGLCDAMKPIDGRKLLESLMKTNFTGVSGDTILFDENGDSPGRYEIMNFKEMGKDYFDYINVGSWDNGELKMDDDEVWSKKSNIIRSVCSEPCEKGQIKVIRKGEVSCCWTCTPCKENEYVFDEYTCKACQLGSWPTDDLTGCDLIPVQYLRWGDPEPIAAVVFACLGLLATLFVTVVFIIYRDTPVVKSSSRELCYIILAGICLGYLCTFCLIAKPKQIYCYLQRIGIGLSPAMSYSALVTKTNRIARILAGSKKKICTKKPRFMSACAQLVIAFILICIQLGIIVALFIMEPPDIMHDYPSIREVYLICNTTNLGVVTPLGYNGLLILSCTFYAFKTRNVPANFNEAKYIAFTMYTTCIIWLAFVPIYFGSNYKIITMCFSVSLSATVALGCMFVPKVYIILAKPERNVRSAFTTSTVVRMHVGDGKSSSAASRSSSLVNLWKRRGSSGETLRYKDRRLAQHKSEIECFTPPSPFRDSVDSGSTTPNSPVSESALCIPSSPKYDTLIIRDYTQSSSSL

Turning to `Cc1cccc(-c2cc([C@H](C)N(C)c3nnc(-c4cnn(C)c(=O)c4)n3C)no2)c1` [Example 14, 2-Methyl-5-[4-methyl-5-(methyl{(1S)-1-[5-(3-methylphenyl)isoxazol-3-yl]ethyl}amino)-4H-1,2,4-triazol-3-yl]pyridazin-3(2H)-one], the IC50 at human mGluR5d turned out to be 12 nM. The Kp in data set [1] turned out to be 0.07.
